Reference: patent US12508322B2, “MIR-145 micelles for mitigating atherosclerosis” (University of Southern California, priority 2021, dated 2025)

Legend:
[1] = tested on: miR-145; experiment: In vivo miR-145 expression in liver tissue (RT-qPCR); design: species or system mice; conditions: one month post treatment
Procedure: (§1) Subsequently, mice were fed a high fat diet (20-23% milkfat, 34% sucrose, 0.2% cholesterol, Teklad Envigo) for 2 weeks before intravenous tail vein injection of treatment (miR-145 micelles, miR-67 micelles, scrambled MCP-1 (NT) miR-145 micelles, free miR-145 (1 mg/kg miR or 0.7 mM total micelle), or PBS). Mice continued high fat diet for an additional 4 weeks or 8 weeks for short- and longer-term efficacy analyses. Mice were then euthanized via CO2 asphyxiation and perfused with PBS, 4% paraformaldehyde (PFA), and PBS again. Organs and aorta were carefully dissected and saved for additional analyses.
Aortic roots and liver tissue were obtained from treated mice. Tissues were weighed and lysed with Trizol (Invitrogen, Carlsbad, CA). miRNeasy Mini Kit (Qiagen, Hilden, Germany) was used to extract microRNA and the miScript II RT Kit (Qiagen, Hilden, Germany) was used to synthesize cDNA according to manufacturer's instructions. Real-time qRT-PCR was performed on the LightCycler 480 Real-Time PCR System ([…]) to evaluate miR-145 levels. RNU-6 was used as an internal control and the 2-AACT method was used to calculate relative expression changes.

[2] = Serum cholesterol quantification (HDL, LDL); assay type: in vivo, mice; conditions: two months post injection
Procedure: Serum cholesterol levels were quantified using a high density lipoprotein (HDL) and low density lipoprotein (LDL) quantification kit (Sigma-Aldrich). Following the manufacturer's protocol, HDL and LDL were separated in serum using precipitation buffer. HDL and LDL samples were subsequently incubated with Reaction Mixes and fluorescence (ex: 535 nm/em: 587 nm) was measured using a plate reader (Varioskan LUX, Thermo Fisher, Waltham, MA, USA).

[3] = tested on: atherosclerotic plaques; experiment: Analysis of atherosclerotic lesions (aortic root H&E, en face Oil Red O) after a single IV dose; assay type: in vivo, mice
Procedure: Male Myh11-CreER^T2 ROSA26 STOP-flox eYFP^+/+ Apoe^−/− mice and female Apoe^−/− mice were used for all studies as the Myh11 transgene is expressed only in male mice. Mice were genotyped by qPCR. Following previously reported methods, mice received ten intraperitoneal injections of 1 mg tamoxifen from 6 weeks of age to 8 weeks for 10 mg total of tamoxifen per 25 g of mouse body weight.
as §1
Atherosclerotic plaques were analyzed in two ways: 1) en face analysis of entire aorta with Oil Red O (ORO) lipid stain and 2) hematoxylin and eosin (H&E) stains of cross sections of aortic roots. Briefly, aortas were dissected from the root to the common iliac arteries. Excess adventitial fat was carefully removed and the aorta was fixed in 4% PFA overnight. The tissue was then cleaned in 78% methanol for 5 min before staining for 1 h with 0.2% ORO solution in methanol. The aortas were then washed twice with 78% methanol for 5 min each and cut open longitudinally before imaging with a stereomicroscope (Leica, Wetzlar, Germany). Quantification of positively stained lesions was done using ImageJ software (NIH, Bethesda, MD). Aortic roots were embedded in optimal cutting temperature compound (OCT) and flash frozen in 2-methylbutane and liquid nitrogen. Roots were sectioned at 10 μm thick sections and stained using H&E. Plaque and necrotic core area in three aortic root sections were quantified and averaged for each sample to obtain a mean±S.D. measurement.

[4] = tested on: VSMC phenotype in plaques (α-SMA, CD68, RUNX2, eYFP); experiment: In vivo immunohistochemistry: cellular composition of aortic root plaques; design: species or system mice; conditions: one month after single dose
Procedure: as §1
Aortic roots were cryosectioned as mentioned above. Tissue sections were blocked in 10% donkey serum with 1% BSA. Sections were subsequently stained with antibodies to GFP (Abcam ab6673), α-SMA (Abcam ab5694), CD68 (Abcam ab125212), and RUNX2 (Abcam ab192256) overnight at 4° C. Donkey anti-rabbit IgG Alexa Fluor 594 (Thermo Fisher, Waltham, MA, USA) and donkey anti-goat IgG Alex Fluor 488 (Thermo Fisher, Waltham, MA, USA) were used as secondary antibodies. Sections were counterstained with DAPI for the nuclei, mounted in ProLong Gold Antifade (Thermo Fisher, Waltham, MA, USA), and imaged using a confocal microscope (Nikon C2 CLSM, Nikon, Tokyo, Japan). Cells were then counted using ImageJ software. […]

[5] = one month after single dose, 1 mg/kg miR IV

For “free miR-145: unformulated miR-145, 5′-GUCCAGUUUUCCCAGGAAUCCCU-3′ (SEQ ID NO: 2) (listed as RNA, chemistry not given here; listed as Homo sapiens)”, the “miR-145 expression in the liver, fold increase compared to PBS” value [1] was 1.5 fold, the “serum HDL level” value [2] was “increases” and the “overall lesion area of the aorta (ORO en face)” value [3, 5] was 7.0±1.3%. For the same substance, the “plaque area in the aortic root” value [3, 5] was 2.1±0.9%, the “lesion area by en face ORO staining” value ([3]; two months after single dose) was 8.0±2.0% and the “plaque/lesional area in the aortic root” value ([3]; two months after single dose) was 10.8±5.0%. For the same substance, the “overlap in eYFP and α-SMA signal (α-SMA+YFP+/YFP+)” value [4] was 30.0±22.1% and the “α-SMA expression within plaques (α-SMA+/DAPI)” value [4] was 40.1±30.7%.
